Earlier results on 8 molecules are cited in patent US20240301505A1, “URINARY TRACT CANCER TREATMENT GUIDED BY MUTATIONAL LANDSCAPE” (BROWN UNIVERSITY, priority 2021, published 2024).

The subject of data set [1] is Bladder tumors with ARID1A deficiencies.
Another data set addresses CHK2 (Homo sapiens, UniProt O96017). As to conditions: in combination with topotecan or camptothecin.
For data set [2], the system named is p21 and p53 protein expression. As to conditions: accompanied by an increase in DNA damage and intracellular hydroxyl radicals.
Another data set deals with p21 protein expression. As to conditions: upon treatment.
For another data set, the target named is T1, CHK1 (Homo sapiens, UniProt O14757).
T1 sequence (O14757 1-476): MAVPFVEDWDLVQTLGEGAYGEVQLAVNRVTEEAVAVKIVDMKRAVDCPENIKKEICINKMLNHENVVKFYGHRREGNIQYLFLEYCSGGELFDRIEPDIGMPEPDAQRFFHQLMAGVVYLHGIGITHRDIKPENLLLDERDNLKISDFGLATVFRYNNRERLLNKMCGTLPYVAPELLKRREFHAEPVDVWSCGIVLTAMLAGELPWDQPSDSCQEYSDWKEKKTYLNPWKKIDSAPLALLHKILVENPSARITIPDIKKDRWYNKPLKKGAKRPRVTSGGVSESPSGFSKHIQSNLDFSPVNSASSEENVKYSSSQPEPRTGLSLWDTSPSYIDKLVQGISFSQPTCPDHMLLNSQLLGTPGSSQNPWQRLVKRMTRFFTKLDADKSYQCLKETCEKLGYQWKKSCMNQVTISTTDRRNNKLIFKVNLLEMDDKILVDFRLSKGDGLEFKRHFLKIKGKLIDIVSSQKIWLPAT
As to conditions: in combination with gemcitabine and irinotecan.

Data set [3] concerns advanced breast cancer with mutations in PIK3CA, AKT1 or PTEN and/or PTEN loss. The note with it: monotherapy, patients with advanced breast cancer with mutations in PIK3CA.

Molecules are shown by their SMILES.

Sequence of CHK2 (O96017 whole entry): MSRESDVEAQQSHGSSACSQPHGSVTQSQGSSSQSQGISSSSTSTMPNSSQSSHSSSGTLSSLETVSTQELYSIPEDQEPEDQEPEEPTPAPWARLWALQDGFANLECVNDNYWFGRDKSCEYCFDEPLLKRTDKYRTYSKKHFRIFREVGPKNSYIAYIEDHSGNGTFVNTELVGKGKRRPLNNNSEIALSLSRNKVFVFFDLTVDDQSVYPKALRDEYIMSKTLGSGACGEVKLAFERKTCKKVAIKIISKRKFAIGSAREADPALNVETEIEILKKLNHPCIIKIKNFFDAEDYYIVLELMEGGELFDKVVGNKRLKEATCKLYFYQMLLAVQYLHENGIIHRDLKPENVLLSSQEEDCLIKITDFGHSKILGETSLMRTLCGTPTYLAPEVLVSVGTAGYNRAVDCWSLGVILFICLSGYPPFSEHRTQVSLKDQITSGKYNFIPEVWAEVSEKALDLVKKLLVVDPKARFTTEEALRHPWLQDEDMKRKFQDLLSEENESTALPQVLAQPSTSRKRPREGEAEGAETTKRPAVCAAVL

Regarding `Nc1ccc(-c2ccc(N)cc2)cc1` [benzidine], in the data set with p21, the “p21 mRNA levels” value is recorded as “downregulate p21 mRNA levels” and the p21 protein levels entry was “decrease p21 protein levels”.

As to `CC[C@H](C)n1cc(C)c2c(C(=O)NCc3c(C)cc(C)[nH]c3=O)cc(-c3ccc(N4CCNCC4)nc3)cc21` [GSK-126], the sensitivity of tumors result in data set [1] is given as “sensitive”.

`C/C(=N\N=C(N)N)c1ccc(NC(=O)c2cc3cccc([N+](=O)[O-])c3[nH]2)cc1` [PV1019]: the activity in combination result at CHK2 is “showed enhanced activity”.

With `C[As](C)(O)=S` [dimethylmonothioarsinic acid], in data set [2], the “p21 and p53 protein expression” value is “decrease in both p21 and p53 protein expression”.

On to `CCCCN(CCCCO)N=O` [N-butyl-N-(4-hydroxybutyl)nitrosamine], for which the p21 protein expression result in the data set with p21 protein expression is “decrease in p21 protein expression”.

For `Nc1ccc(-c2ccccc2)cc1` [4-ABP, 4-Aminobiphenyl], the “mutations induced occurring at G:C base pairs” value with G:C base pairs was 82.9%.

In the case of `COc1cc(Nc2cnc(C#N)c(O[C@H](C)CN(C)C)n2)ncc1-c1cnn(C)c1` [CCT244747], the anti-tumor activity entry on CHK1 is “showed anti-tumor activity”.

As for `NC1(c2ccc(-c3nc4ccn5c(=O)[nH]nc5c4cc3-c3ccccc3)cc2)CCC1` [MK-2206], in data set [3], the clinical activity entry is listed as “limited clinical activity”.
